Structures can show the parent of a compound that is named as a salt.
Compound | melting point
CCN1CCN(c2cc(F)c(Nc3ncc4c(=O)c(C(N)=O)c(N)n(CC)c4n3)c(OC)c2)CC1 (as salt: HCl) [compound 28, 7-Amino-8-ethyl-2-[4-(4-ethylpiperazin-1-yl)-2-fluoro-6-methoxyphenylamino]-5-oxo-5,8-dihydropyrido[2,3-d]pyrimidine-6-carboxamide] | > 260 °C
CCn1c(N)c(C(N)=O)c(=O)c2cnc(Nc3ccc(N4CCN(C5CC5)CC4)cc3OC(F)F)nc21 (as salt: HCl) [compound 33, 7-Amino-2-[4-(4-cyclopropylpiperazin-1-yl)-2-difluoromethoxyphenylamino]-8-ethyl-5-oxo-5,8-dihydropyrido[2,3-d]pyrimidine-6-carboxamide] | 204 to 206 °C
CCn1c(N)c(C(N)=O)c(=O)c2cnc(Nc3ccc(CCN4CCCCC4)cc3)nc21 (as salt: HCl) [compound 65, 7-Amino-8-ethyl-5-oxo-2-[4-(2-piperid-1-ylethyl)phenylamino]-5,8-dihydropyrido[2,3-d]pyrimidine-6-carboxamide] | 216 °C
NCCCn1c(N)c(C(N)=O)c(=O)c2cnc(Nc3ccc(N4CCOCC4)cc3)nc21 (as salt: HCl) [compound 81, 7-Amino-8-(3-aminopropyl)-2-(4-morpholin-4-ylphenylamino)-5-oxo-5,8-dihydropyrido[2,3-d]pyrimidine-6-carboxamide] | 250 °C
CCn1c(N)c(C(N)=O)c(=O)c2cnc(Nc3ccc([C@@H]4C[C@H]4N(C)C)cc3)nc21 (racemic) (as salt: HCl) [compound 97, (±)-7-Amino-2-trans-[4-(2-dimethylaminocyclopropyl)phenylamino]-8-ethyl-5-oxo-5,8-dihydropyrido[2,3-d]pyrimidine-6-carboxamide] | 208 to 210 °C (dec.)
CCn1c(N)c(C(N)=O)c(=O)c2cnc(Nc3ccc(O)cc3)nc21 [compound 1, 7-Amino-8-ethyl-2-(4-hydroxyphenylamino)-5-oxo-5,8-dihydropyrido[2,3-d]pyrimidine-6-carboxamide] | > 260 °C
NC(=O)c1c(N)n(C2CCCC2)c2nc(Nc3ccc(N4CCOCC4)cc3)ncc2c1=O [compound 8, 7-Amino-8-cyclopentyl-2-(4-morpholin-4-ylphenylamino)-5-oxo-5,8-dihydropyrido[2,3-d]pyrimidine-6-carboxamide] | 265 °C
CCn1c(N)c(C(N)=O)c(=O)c2cnc(Nc3cccc(N4CCOCC4)c3)nc21 [compound 17, 7-Amino-8-ethyl-2-(3-morpholin-4-ylphenylamino)-5-oxo-5,8-dihydropyrido[2,3-d]pyrimidine-6-carboxamide] | 195 °C
CCn1c(N)c(C(N)=O)c(=O)c2cnc(Nc3ccc(CCO)cc3)nc21 [compound 55, 7-Amino-8-ethyl-2-[4-(2-hydroxyethyl)phenylamino]-5-oxo-5,8-dihydropyrido[2,3-d]pyrimidine-6-carboxamide] | 289 °C

Now from value to compound:

melting point | Compound
226 to 228 °C | CCn1c(N)c(C(N)=O)c(=O)c2cnc(Nc3ccc(C4CCN(C5CC5)CC4)cc3OC)nc21 (as salt: HCl) [compound 29, 7-Amino-2-[4-(1-cyclopropylpiperid-4-yl)-2-methoxyphenylamino]-8-ethyl-5-oxo-5,8-dihydropyrido[2,3-d]pyrimidine-6-carboxamide]
199 °C | CCn1c(N)c(C(N)=O)c(=O)c2cnc(Nc3ccc(C4CCN(CCC(F)(F)F)CC4)cc3OC)nc21 (as salt: HCl) [compound 35, 7-Amino-8-ethyl-2-{2-methoxy-4-[1-(3,3,3-trifluoropropyl)piperid-4-yl]phenylamino}-5-oxo-5,8-dihydropyrido[2,3-d]pyrimidine-6-carboxamide]
228 °C (dec.) | COc1cc(C2CCNCC2)ccc1Nc1ncc2c(=O)c(C(N)=O)c(N)n(-c3ccccc3)c2n1 (as salt: HCl) [compound 113, 7-Amino-2-(2-methoxy-4-piperid-4-ylphenylamino)-5-oxo-8-phenyl-5,8-dihydropyrido[2,3-d]pyrimidine-6-carboxamide]
222 °C (dec.) | CCN1CCN(c2ccc(Nc3ncc4c(=O)c(C(N)=O)c(N)n(CC(C)(C)O)c4n3)c(OC)c2)CC1 (as salt: HCl) [compound 129, 7-Amino-2-[4-(4-ethylpiperazin-1-yl)-2-methoxyphenylamino]-8-(2-hydroxy-2-methylpropyl)-5-oxo-5,8-dihydropyrido[2,3-d]pyrimidine-6-carboxamide]
> 260 °C | COc1cc(C2CCN(CCC(F)(F)F)CC2)ccc1Nc1ncc2c(=O)c(C(N)=O)c(N)n(CC(C)(C)O)c2n1 (as salt: HCl) [compound 130, 7-Amino-8-(2-hydroxy-2-methylpropyl)-2-{2-methoxy-4-[1-(3,3,3-trifluoropropyl)piperid-4-yl]phenylamino}-5-oxo-5,8-dihydropyrido[2,3-d]pyrimidine-6-carboxamide]
170 °C (dec.) | COCCN1CCC(c2ccc(Nc3ncc4c(=O)c(C(N)=O)c(N)n(CC(C)(C)O)c4n3)c(OC)c2)CC1 (as salt: HCl) [compound 133, 7-Amino-8-(2-hydroxy-2-methylpropyl)-2-{2-methoxy-4-[1-(2-methoxyethyl)piperid-4-yl]phenylamino}-5-oxo-5,8-dihydropyrido[2,3-d]pyrimidine-6-carboxamide]
256 °C (dec.) | COc1cc(C2CCN(C)CC2)ccc1Nc1ncc2c(=O)c(C(N)=O)c(N)n(-c3ccccc3)c2n1 (as salt: HCl) [compound 134, 7-Amino-2-[2-methoxy-4-(1-methylpiperid-4-yl)phenylamino]-5-oxo-8-phenyl-5,8-dihydropyrido[2,3-d]pyrimidine-6-carboxamide]

Source: patent publication US8975250B2, “5 oxo-5,8-dihydropyrido[2,3-d]pyrimidine derivatives as CaMKII kinase inhibitors for treating cardiovascular diseases” (SANOFI, priority 2010, dated 2015)
